In article PMC11987006 (iScience, 2025):

Columns and labels:
WT N2 animal [1] = assay: salt chemotaxis with tyramine/octopamine, WT N2; format: in vivo, C. elegans; conditions: 10 μM TA or OA or both in conditioning solutions or test plate agar
WT N2 animal [2] = assay: salt chemotaxis learning with tyramine/octopamine, WT N2; format: in vivo, C. elegans; conditions: 10 μM TA or OA or both in conditioning solutions or test plate agar

Row | SMILES | effect on salt chemotaxis (WT N2 animal [1]) | effect on SCL (learning index) (WT N2 animal [2])
1 | NCC(O)c1ccc(O)cc1 (stereo not shown) [OA, octopamine] | no obvious impact | no obvious impact
2 | NCCc1ccc(O)cc1 [TA, tyramine] | no obvious impact | no obvious impact
